Consider 8 molecules from US4600540A, “Benzoylpropionic acid derivatives” (Taisho Pharmaceutical Co., Ltd., priority 1984, dated 1986).

A word on the LD50: it is the dose expected to kill half of the subjects tested. A lower LD50 goes with greater toxicity.

The subject of data set [1] is adjuvant arthritis in Lewis rats. Briefly: Effect on adjuvant arthritis in Lewis rats (Cellular immunostimulation). It counts as in vivo. The note with it: 100 mg/Kg orally once a day, 21 days after sensitization; for Tumor stimulating ratio: control = 1.00; for Edema volume: hind paw. Here is the method:
Effect on adjuvant arthritis in Lewis rats
(Cellular immunostimulation)
10 Female Lewis rats, 9 weeks old, weighing 180-190 g were used per each group. Rats of each group were administered subcutaneously into the tail with a suspension of 0.6 mg of heated killed mycobaterium butyricum in liquid parafin. Each of the compounds I, suspended in a 5% gum arabic solution, was administered orally once a day to rats of different groups in an amounts of 100 mg/Kg after sensitization. As a comparative drug was used D-penicillamine in the form of an aqueous solution, which was administered orally to rats of different groups in a manner similar to the compound I.
In intervals were measured the edema volume of the hind paw of rats in the drug-treated groups and the control (the drug-untreated groups) for evaluating the tumor stimulating activity of the drug.

Data set [2] is described as follows: Acute toxicity. To be noted: rat, in vivo; oral, male Wister rats, observed for 7 days. The protocol:
7 male, 7 weeks old, Wister rats weighing 149-160 g were used per each for test. Rats were administered orally with a suspension of the compound I of Example 1 in a 5% gum arabic solution and observed for 7 days after administration, and the LD50 value was calculated.

Data set [3] has as its system spleen lymphocytes. Briefly: Stimulating effect of lymphocytes transformation (3H-thymidine uptake, mitogenation). It counts as cell-based, BDF1 mice. To be noted: Mus musculus, Lymphocyte, B medium (with lipopolysaccharide 0.2 μg/ml); 0.3 μg/ml. Here is the method:
Stimulating effect of lymphocytes transformation
(Immunomodulative stimulating effect)
Mediums of RPMI-1640 (produced by GIBCO Co.) containing the compound I only (A medium), and containing a mitogen (lipopolysaccharide 0.2 μg/ml) and the compound I (B medium) were prepared.
2×10^5 of spleen lymphocytes of female BDF1 mice, 8-12 weeks old, weighing 20-22 g were cultured on each of the mediums at 37° C. for 48 hours under a 5% carbon dioxide in air. 0.25 μCi of ^3 H-thymidine was added to each of the mediums, and cultivation was further carried out for 22 hours. After completion of the cultivation, the lymphocytes were collected and their radio activity was measured to calculate the ^3 H-thymidine uptake into the lymphocytes for evaluating mitogenation.
The results were expressed as percent to ^3 H-thymidine uptake into lymphocytes in the control medium (not containing the compound I) and shown in Table 4.

The test system of data set [4] is delayed-type footpad reaction. The experiment in a line: Effect on delayed-type footpad reaction (Cellular immunomodulating effect). It counts as in vivo, Balb/c mice. The note with it: 2 hours after sensitization. The protocol: Effect on delayed-type footpad reaction
(Cellular immunomodulating effect)
8 Female Balb/c mice, 8-12 weeks oil, weighing 20-24 g were used per each group. Mice of each group were administered subcutaneously into the right footpad with 1×10^8 sheep red blood cells as antigen to be sensitized.
Each of the compounds I, suspended in a 0.5% gum arabic saline solution, was administered intraperitoneally to mice of different groups in different amounts 2 hours after the sensitization.
Four days after the sensitization, mice of each group were administered subcutaneously into the left footpad with 1×10^8 sheep red blood cells, and the increase of thickness of swelling footpad was measured for evaluating the suppression to the delayed-type footpad reaction according to the method of Lagrange et al [Journal of Experimental Medicine, vol. 139, page 528,(1974)].

The test system of data set [5] is adjuvant arthritis in Sprague-Dawley rats. The experiment in a line: Effect on adjuvant arthritis in Sprague-Dawley rats (chronic rheumatoid arthritis model). The note with it: 21 days after sensitization; for Edema volume: hind paw; for Paw edema suppression rate: vs control. It counts as in vivo. The protocol: Effect on adjuvant arthritis is Sprague-Dawley rats
(chronic rheumatoid arthritis model)
10 Female Sprague-Dawley rats, 8 weeks old, weighting 160-190 g were used per each group. Rats of each group were administered subcutaneously into the tail with a suspension of 0.6 mg of heated killed mycobaterium butyricum in liquid parafin. Each of the compounds I, suspended in a 5% gum arabic solution, was administered orally once a day to rats of different groups in different amounts after sensitization.
At intervals were measured the edema volume of the hind paw of rats in the drug-treated groups and the control (drug-untreated groups) for evaluating tumor suppression activity of the compounds I.

Data set [6] deals with spleen lymphocytes. Briefly: Stimulating effect of lymphocytes transformation (3H-thymidine uptake, mitogenation). It counts as cell-based, BDF1 mice. To be noted: Mus musculus, Lymphocyte; for activity at 0.3 µg/mL: 0.3 μg/ml; for activity at 1 µg/mL: 1 μg/ml; for activity at 3 µg/mL: 3 μg/ml; for activity at 10 µg/mL: 10 μg/ml; for activity at 30 µg/mL: 30 μg/ml.
[7] abbreviates: B medium (with lipopolysaccharide 0.2 μg/ml).

Turning to `CC(C)(S)[C@@H](N)C(=O)O` [D-penicillamine, reference compound], in data set [1], the Tumor stimulating ratio turned out to be 1.38 and the Edema volume was 3.76 ± 0.11 mL.

Consider `CC(=O)SCC(CC(=O)c1ccccc1)C(=O)O` (centres unmarked) [Example 1, 2-acethylthiomethyl-3-benzoylpropionic acid], for which the median lethal dose (LD50) at 168 h in data set [2] is more than 1200 mg/kg. Besides, the activity at 0.3 µg/mL in data set [3] amounted to 134%. Moreover, in data set [4] (10 mg/kg intraperitoneally), the “Increase of thickness of swelling footpad” value (“Increase” for short) is reported as 102.5 ± 10.8 × 10^-2 mm and the “Suppression rate of delayed-type footpad reaction” value is listed as 37.7. For the same molecule, in data set [4] (100 mg/kg intraperitoneally), the “Increase” value was 80.6 ± 8.0 × 10^-2 mm and the “Suppression rate of delayed-type footpad reaction” value is on record as 51.0. Besides, in data set [5] (30 mg/kg orally once a day), the Edema volume stood at 0.58 ± 0.18 mL and the “Paw edema suppression rate” value came out at 69.0%. In addition, in data set [6] (A medium (compound only)), the activity at 0.3 µg/mL came out at 120%, the activity at 1 µg/mL stood at 114%, the activity at 3 µg/mL is 129% and the activity at 10 µg/mL came to 128%. Further, the activity at 30 µg/mL in data set [6] (A medium (compound only)) was determined as 149%. Besides, in data set [6] (setting [7]), the activity at 1 µg/mL came out at 146%, the activity at 3 µg/mL came out at 177%, the activity at 10 µg/mL is 217% and the activity at 30 µg/mL was determined as 241%.

As to `CC(=O)SCC(CC(=O)c1ccc(F)cc1)C(=O)O` (centres unmarked) [Example 2], in data set [1], the Tumor stimulating ratio was 1.27 and the Edema volume was found to be 3.46 ± 0.47 mL.

`CC(=O)SCC(CC(=O)c1ccc(Cl)cc1)C(=O)O` (centres unmarked) [Example 3]: in data set [1], the Tumor stimulating ratio was found to be 1.18 and the Edema volume was determined as 3.22 ± 0.09 mL.

Regarding `CC(=O)SCC(CC(=O)c1ccc(Br)cc1)C(=O)O` (centres unmarked) [Example 4, 2-acetylthiomethyl-3-(4-bromobenzoyl)propionic acid], the values for the activity at 0.3 µg/mL in data set [3] and in data set [6] (A medium (compound only)) were 115% and 83%, respectively. The Tumor stimulating ratio in data set [1] worked out at 1.20. Moreover, the Edema volume in data set [1] stood at 3.27 ± 0.28 mL; in data set [5] (30 mg/kg orally once a day) it was 0.64 ± 0.29 mL; in data set [5] (100 mg/kg orally once a day), 0.36 ± 0.14 mL; in data set [5] (300 mg/kg orally once a day), 0.12 ± 0.09 mL. For the same molecule, the “Increase” value is reported as 115.6 ± 4.8 × 10^-2 mm in data set [4] (10 mg/kg intraperitoneally) and 89.4 ± 5.5 × 10^-2 mm in data set [4] (100 mg/kg intraperitoneally). Further, the “Suppression rate of delayed-type footpad reaction” value in data set [4] (10 mg/kg intraperitoneally) turned out to be 8.5; in data set [4] (100 mg/kg intraperitoneally), 29.3. The figures for the “Paw edema suppression rate” value in data set [5] (30 mg/kg orally once a day), in data set [5] (100 mg/kg orally once a day) and in data set [5] (300 mg/kg orally once a day) were 65.8%, 80.7% and 93.6%, respectively. For the same molecule, the activity at 3 µg/mL in data set [6] (A medium (compound only)) came out at 97%; in data set [6] (setting [7]) it was 107%. For the same molecule, the activity at 30 µg/mL is 117% in data set [6] (A medium (compound only)) and 131% in data set [6] (setting [7]).

For `COc1ccc(C(=O)CC(CSC(C)=O)C(=O)O)cc1` (centres unmarked) [Example 7], in data set [1], the Tumor stimulating ratio turned out to be 1.25 and the Edema volume stood at 3.41 ± 0.19 mL.

In the case of `O=C(CC(CSC(=O)c1ccccc1)C(=O)O)c1ccccc1` (centres unmarked) [Example 13, 3-benzoyl-2-benzoylthiomethylpropionic acid], in data set [1], the Tumor stimulating ratio is listed as 1.33 and the Edema volume amounted to 3.63 ± 0.11 mL.

As to `CCOC(=O)C(CSC(C)=O)CC(=O)c1ccccc1` (centres unmarked) [Example 16, ethyl 2-acethylthiomethyl-3-benzoylpropionate], in data set [1], the Tumor stimulating ratio worked out at 1.17 and the Edema volume is 3.18 ± 0.17 mL.
